According to the supplement of paper PMC10307832:

Key:
Assay in all cases: relative viability (nuclei count vs DMSO), 5 days (fraction); higher = more cells survive
[1] = compound: CC(C)(C)c1nc(-c2cccc(NS(=O)(=O)c3c(F)cccc3F)c2F)c(-c2ccnc(N)n2)s1 [Dabrafenib] + CC(C)C[C@H](NC(=O)[C@H](Cc1ccccc1)NC(=O)c1cnccn1)B(O)O [Bortezomib] (partner 0.002 µM)
Outline: (§1)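 For relative viability, nuclei counts in treated wells were divided by those in vehicle wells. Lung cancer cell lines had been pin-tool dosed in 1536-well plates the day after seeding and cultured for 5 days, then fixed and stained in one step (final 0.05% Triton X-100, 1% formaldehyde, 1 ug/ml Hoechst) and imaged at 4×. Doses were one drug alone or a fixed anchor-drug dose plus five library-drug doses (not always all listed) in √10 steps, and values are duplicate-plate medians.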

[2] = compound: CC(C)(C)c1nc(-c2cccc(NS(=O)(=O)c3c(F)cccc3F)c2F)c(-c2ccnc(N)n2)s1 [Dabrafenib] + O=C(c1cc(Cc2n[nH]c(=O)c3ccccc23)ccc1F)N1CCN(C(=O)C2CC2)CC1 [Olaparib] (partner 8 µM)
Outline: as §1

[3] = compound: CC(C)(C)c1nc(-c2cccc(NS(=O)(=O)c3c(F)cccc3F)c2F)c(-c2ccnc(N)n2)s1 [Dabrafenib] + CS(=O)(=O)CCNCc1ccc(-c2ccc3ncnc(Nc4ccc(OCc5cccc(F)c5)c(Cl)c4)c3c2)o1 [Lapatinib] (partner 2 µM)
Outline: as §1

[4] = compound: CC(C)(C)c1nc(-c2cccc(NS(=O)(=O)c3c(F)cccc3F)c2F)c(-c2ccnc(N)n2)s1 [Dabrafenib] + Cc1cc(Nc2cc(N3CCN(C)CC3)nc(Sc3ccc(NC(=O)C4CC4)cc3)n2)n[nH]1 [Tozasertib] (partner 0.1 µM)
Outline: as §1

| Cell Line | relative viability ([1]; first compound 0.003 µM) | relative viability ([1]; first compound 0.009487 µM) | relative viability ([1]; first compound 0.03 µM) | relative viability ([1]; first compound 0.09487 µM) | relative viability ([1]; first compound 0.3 µM) | relative viability ([2]; first compound 0.003 µM) | relative viability ([2]; first compound 0.009487 µM) | relative viability ([2]; first compound 0.03 µM) | relative viability ([2]; first compound 0.09487 µM) | relative viability ([2]; first compound 0.3 µM) | relative viability ([3]; first compound 0.003 µM) | relative viability ([3]; first compound 0.009487 µM) | relative viability ([3]; first compound 0.03 µM) | relative viability ([3]; first compound 0.09487 µM) | relative viability ([3]; first compound 0.3 µM) | relative viability ([4]; first compound 0.003 µM) | relative viability ([4]; first compound 0.009487 µM) | relative viability ([4]; first compound 0.03 µM) | relative viability ([4]; first compound 0.09487 µM) | relative viability ([4]; first compound 0.3 µM) |
| --- | --- | --- | --- | --- | --- | --- | --- | --- | --- | --- | --- | --- | --- | --- | --- | --- | --- | --- | --- | --- |
| RERF-LC-KJ | 1.02 | 1.33 | 1.05 | 1.05 | 1.13 | 0.907 | 1 | 0.895 | 0.774 | 0.932 | 0.851 | 0.9 | 0.893 | 0.907 | 1.04 | 0.484 | 0.593 | 0.581 | 0.456 | 0.591 |
| SK-LU-1 | – | 1.12 | – | 0.607 | 0.871 | – | 0.521 | 0.372 | 0.347 | 0.406 | – | 0.804 | 0.653 | 0.664 | 0.719 | – | 0.365 | 0.255 | 0.311 | 0.332 |
| SW 1573 | 1.11 | 1.16 | 1.13 | 0.996 | 1.17 | 0.501 | 0.468 | 0.475 | 0.415 | 0.453 | 0.883 | 0.864 | 1.17 | 1.1 | 1.11 | 0.284 | 0.233 | 0.191 | 0.19 | 0.241 |
| UMC-11 | 1.05 | 0.637 | 0.647 | 0.681 | 0.735 | 0.443 | 0.879 | 0.354 | 0.317 | 0.427 | 1.01 | 1.08 | 0.812 | 1.08 | 0.959 | 0.189 | 0.202 | 0.19 | 0.197 | 0.231 |
